Reference: patent US10752881B2, “Trans-differentiation of differentiation cells” (Helmholtz Zentrum München-Deutsches Forschungszentrum für …, priority 2014, dated 2020)

Columns and labels:
[1] = tested on: postnatal mouse astrocytes; conditions: co-transfected with Ascl1-RFP, 4 days
Description: (C) Histogram of astroglial cultures transfected with Ascl1-RFP-encoding plasmid alone or in combination with WT-Bcl-2, EE-Bcl-2 or A-Bcl-2 at 4 days post-transfection (DPT). The number of transfected cells (RFP+) at final time point (4 DPT) was normalized to the initial number of transfected cells (1 DPT) to calculate the % of survival. The % of neuronal conversion was analysed by β-III-tubulin immunostaining and normalized to total number of RFP+ cells at the end of the experiment. Error bars indicate ±SD. *p<0.05, **p<0.01; ANOVA Tukeys post-test.
A, Quantifications at 5 DPT (days post-transfection) showing the effect of the inhibitor of ferroptosis, α-toc and the inhibitor of apoptosis, ZVAD in survival/efficiency of conversion of astroglial cells transfected with Ascl1-RFP.
C, Percentage of neurons in astroglial cells transfected with Ascl1-encoding plasmid alone or in combination with Bcl-2 and/or Vdr at 5 DPT after 4 days of treatment with calcitriol or untreated.
After removal of the meninges, grey matter tissue was dissected from P5-P7 cerebral cortex of C57BL/6J mice and dissociated mechanically. Subsequently, cells were centrifuged for 5 min at 1000 rpm, re-suspended, and plated in medium consisting of DMEM/F12 (Gibco), 3.5 mM glucose (Sigma), 10% fetal calf serum (Gibco), 5% horse serum (Gibco), penicillin/streptomycin (Gibco) and supplemented with B27 (Gibco), 10 ng/mL epidermal growth factor (EGF, Roche) and 10 ng/mL fibroblast growth factor 2 (FGF2, Roche). After one week expansion cells were harvested using trypsin/EDTA (Gibco) and plated onto poly-D-lysine (Sigma-Aldrich) coated glass coverslips in 24-well plates (BD Biosciences) or directly onto the plastic for time lapse experiments at a density of 60,000 cells per well in the same medium. After 24 hours cells were either transfected with plasmid or infected with retroviral vectors and after further 24 hours medium was changed to differentiation medium composed of DMEM/F12 high glucose with GlutaMAX, penicillin/streptomycin and B27 supplement (Gibco) to allow neuronal differentiation.
For transfection DNA-liposome complexes were prepared in Optimem medium (Invitrogen) using the retroviral plasmids described below and Lipofectamine 2000 (Invitrogen). Astrocyte cultures were exposed to DNA-liposome complexes at a concentration of 0.5 μg DNA per 400 μl of Optimem medium for 4 hours and cultured after that in the differentiation medium as above.
Cells were fixed in 4% paraformaldehyde (PFA) in phosphate-buffered saline (PBS) for 10 min at room temperature (RT), washed in PBS and pretreated in 0.5% Triton X-100 in PBS for 30 min, followed by incubation in 2% BSA and 0.5% Triton X-100 in PBS for 30 min. Primary antibodies were incubated on specimen overnight at 4° C. in 2% BSA, 0.5% Triton X-100 in PBS.

[2] = tested on: Mouse embryonic fibroblasts (MEFs); test: Fibroblast-to-neuron reprogramming of MEFs with retroviral vectors, β-III-tubulin immunostaining; format: cell-based
[3] = tested on: astroglial cells transfected with Ascl1-RFP; test: Lipid peroxidation (C11-Bodipy staining) and glutathione detection during reprogramming; format: cell-based, mouse; conditions: co-transfected with Ascl1, 2 DPT
Description: C, Micrographs show oxidized lipids (C11-Bodipy staining) at 2 DPT in astroglial cells transfected with Ascl1-REP alone or in combination with EE-Bcl-2 or A-Bcl-2. Note higher levels of oxidation in cells transfected with only Ascl1 or Ascl1+EE-BCl-2 (black arrows) compare to cells co-transfected with Ascl1+A-Bcl-2 (black arrowheads). High magnification pictures show partial co-localization of C11-Bodipy staining and DAPI in Ascl1-expressing cells contrarily to cells co-transfected with Ascl1+EE-Bcl-2 (see arrows).
D, Pictures show glutathione (GSH) detection of same cells shown in C. Cells with normal or increased levels of GSH are depicted by arrowheads and arrows respectively.
These observations open the question of why EE-Bcl-2 has no effect in neuronal reprogramming while A-Bcl-2 has.
For the detection of oxidative stress we used CellROX green Reagent (Life technologies, C10444) according with the described protocol and fluorescence was detected by microscope (see below).

[4] = tested on: MEFs; conditions: MyoD + A-Bcl-2 vs MyoD/GFP

A-Bcl-2: S70A recombinant Bcl-2 with reduced ability to interact with Bax, mimics the un-phosphorylated form
effect on cell survival during reprogramming [1]: decreased survival compared to those transfected with WT-Bcl-2- or EE-Bcl-2-encoding plasmids
effect on proportion of neuronal conversion mediated by Ascl1 ([1]; β-III-tubulin): increased proportion of neurons induced from the transfected astrocytes
neuronal conversion in MEFs (β-III-tubulin) ([2]; Ascl1-based retroviral vectors, 14 days after infection): > 75%
increase of proportion of neurons induced from MEFs ([2]; Neurog2 + A-Bcl-2 vs Neurog2/RFP): 6 ×
proportion of neurons induced from MEFs, of all infected cells ([2]; Neurog2-based retroviral vectors, 15 days after infection): 63%
effect on lipid peroxidation / oxidative stress (C11-Bodipy) [3]: very efficiently reducing oxidative stress
speed of conversion into skeletal muscle cells [4]: converted much faster into skeletal muscle cells
